From publication PMC10412585 (Nature Communications, 2023) come the findings set out here.

Entries after “also recorded” stand apart in the source; their conditions may differ. Where two headings read alike, the source gives them in different places.

Assay [1] deals with HLA-E. In words: HLA-E surface stabilization assay with RMA-S/HLA-E cells. The class given is cell-based, human. The following applies: peptide 3-300 µM (Fig. 3: 30 µM) in OptiMEM, 16 h, 37 °C, anti-HLA-E 3D12, flow cytometry, n = 4 replicate experiments. The procedure:
To probe top-predicted proteome-derived peptides (Tables 2 and 3) for HLA-E binding, we assessed their ability to stabilize surface-expressed HLA-E on RMA-S/HLA-E cells, a TAP-deficient mouse cell line engineered to express HLA-E and human β2M (Fig. 3 and Supplemental Fig. 8)[47].
Fig. 3 Peptide stabilization of HLA-E surface expression. Assessment of peptide-HLA-E binding via HLA-E surface stabilization assay with RMA-S/HLA-E cells incubated with 30 μM peptide. HLA-E expression is detected with an anti-HLA-E antibody. Measurements from n = 4 replicate experiments are shown, with solid black lines indicating mean values. […] Source data are provided as a Source Data file.
RMA-S/HLA-E cells were incubated with serial dilutions of peptides (3–300 µM, Genscript) in OptiMEM (ThermoFisher) for 16 h at 37 °C. Cells were washed with PBS, stained for HLA-E (Clone 3D12, Biolegend, 1:200 dilution) for 15 min at room temperature and analyzed by flow cytometry (analysis in FlowJo version 10). Peptide UBAC2_275-279 was ordered as a 5mer peptide (WNRLF) given the similarity with other WN peptides and hypothesis of a truncated peptide binding in the HLA-E groove. […] Measurements from replicate experiments are plotted in Fig. 3 and Supplemental Fig. 8.
Background: A flow cytometer gives signals particle by particle.

Assay [2] concerns NKG2A+/NKG2C- NK cells. In words: NK cell activation assay with peptide-pulsed K562/HLA-E cells, NKG2A+/NKG2C- NK cells. It is filed as cell-based, human. The following applies: K562/HLA-E target cells, 300 µM peptide ([…] µM BFAR263-271), E:T 2:1, 6 h; degranulation (CD107a), IFN-γ, TNF, CCL3; flow cytometry. On the procedure:
(§1) We hypothesized that our predicted proteome-derived peptides could affect NK cell activation through interactions with CD94/NKG2A and CD94/NKG2C. To investigate, we performed cell-based activation assays on primary NK cells (Fig. 4A). NK cells were co-incubated with peptide-pulsed HLA-E-expressing K562 cells, as described previously. The parental K562 human myelogenous leukemia cell line is a typical target to measure NK cell cytotoxicity and activation, allowing for assessment of both NKG2A-mediated inhibition and NKG2C-mediated activation. […] NKG2A^-/NKG2C^- NK cells served as internal control as these should be unaffected by peptide-HLA-E complexes (Supplemental Fig. 12).
(§2) Fig. 4 NK cell stimulation assays. Assessment of effects of peptides on NK cell activity through incubation of NK cells, peptides, and (A) K562/HLA-E or (B) RMA-S/HLA-E target cells. […] Replicates for individual peptides are from different donors, with solid black lines indicating mean values. […] Representative gating for NKG2A^+/NKG2C^- and NKG2A^-/NKG2C^+ NK cells is shown in Supplemental Fig. 14. Source data are provided as a Source Data file.
(§3) All analyses of human data were carried out in compliance with the relevant ethical regulations. Healthy blood donors gave informed consent at DRK Blutspendedienst Nord-Ost, Dresden, Germany, and buffy coats were obtained as approved by Charité ethics committee (EA4/059/17). PBMCs were isolated from human CMV-seropositive buffy coats by density centrifugation over Ficoll Paque Plus (GE Healthcare) and screened for the presence of NKG2C^+ NK cell expansions by flow cytometry to have sufficient frequencies of single-positive cells for parallel assessment of activation and inhibition via HLA-E[47]. Total NK cells from donors with NKG2C^+ expansions (>10% NKG2A^-/NKG2C^+ NK cells) were enriched with CD56 microbeads (Miltenyi Biotec) and cryopreserved in FBS with 10% v/v DMSO. After thawing, NK cells were washed with complete medium, stained with antibodies and Fixable Viability Dye eFluor 780 (Thermo Fisher) for 15 min at 4 °C in PBS, sorted as viable CD56^+ CD3^− cells, and rested in complete media overnight. […] Brefeldin A and Monensin (BD Biosciences) were added after a 1 h culture period. After an additional 5 h, the stimulation was stopped by centrifugation at 4 °C. Cells underwent surface staining, followed by fixation and intracellular staining using Inside Stain Kit (Miltenyi Biotec). Samples were analyzed by flow cytometry on an LSR Fortessa (BD Biosciences). Inhibition of NKG2A^+ NK cells and activation of NKG2C^+ NK cells was assessed by gating on the respective single-positive populations (Supplemental Fig. 14). Antibodies are listed in Supplemental Table 1: anti-human CD56 PE/Dazzle 594 (1:200 dilution), CD3 APC-eFluor 780 (1:50 dilution), anti-human CD159a (NKG2A) Biotin REAfinity (1:50 dilution), anti-human CD159c (NKG2C) PE REAfinity (1:100 dilution), anti-human CD107a (LAMP-1) Alexa Fluor 488 (1:400 dilution), anti-human IFN-γ PE-Vio 770 REAfinity (1:50 dilution), anti-human TNF-α Brilliant Violet 605 (1:50 dilution), anti-human CCL3 (MIP-1α) REAfinity (1:25 dilution).

Assay [3] concerns NKG2A-/NKG2C+ NK cells. In words: NK cell activation assay with peptide-pulsed K562/HLA-E cells, NKG2A-/NKG2C+ NK cells. The class given is cell-based, human. The following applies: K562/HLA-E target cells, 300 µM peptide ([…] µM BFAR263-271), E:T 2:1, 6 h; degranulation (CD107a), IFN-γ, TNF, CCL3; flow cytometry. The procedure:
as §1, §2, §3

Assay [4] deals with NKG2C+ NK cells. In words: NK cell activation assay with peptide-pulsed RMA-S/HLA-E cells. It is filed as cell-based, human. The procedure: as §2
In contrast to K562 cell lines which are targets for human NK cells, RMA-S cells (a TAP-deficient mouse cell line)[48] are inert to human NK cells and thus will not activate NK cells absent engagement of an activating receptor on the NK cells. […] We performed additional NK cell activation assays with RMA-S/HLA-E cells (Fig. 4B).
as §3

Assay [5] has as its system HLA-E. In words: Prometheus differential scanning fluorimetry of HLA-E with peptide. It is filed as binding, human. The following applies: refolded HLA-E*01:03/β2M 9 μg, 50x peptide to MHC ratio, high sensitivity capillary, 1 °C per minute 20-95 °C, first inflection point; DMSO control 33.8. The procedure: Differential scanning fluorimetry (DSF) experiments were performed with a Prometheus NanoTemper NT.48 (Munich, Germany) to measure protein stability, using intrinsic tryptophan fluorescence.
For these experiments, refolded empty HLA-E was generated. Human β2M plus a poly-histidine tag and HLA-E*01:03 extracellular α1, α2, and α3 domains plus an AviTag biotinylation tag were separately codon optimized for E. coli and cloned into the bacterial expression vector pET28a. Inclusion bodies for HLA-E and β2M were made in BL21 E. coli. Inclusion bodies were purified, homogenized, and dissolved, including denaturation in 8 M urea solution. Before refolding, each IB was mixed with an equal volume of Gdn-Cl solution (6 M Guanidine HCl, 500 mM Tris, 2 mM EDTA, 100 mM NaCl) and incubated overnight at 37 °C. β2M was injected dropwise with a 27-gauge needle into refolding buffer (100 mM pH 8.3 Tris, 400 mM L-arginine hydrochloride, 2 mM EDTA, 0.5 mM oxidized glutathione, 5 mM reduced glutathione, 0.2 mM PMSF) and incubated, stirring gently, at 4 °C for 1 h, after which an equal mass of HLA-E heavy chain was similarly injected. This solution incubated at 4 °C overnight, followed by two days of dialysis in 10 mM Tris + 50 mM NaCl. Protein was concentrated in 10 kDa molecular weight cutoff centrifugal concentrators and purified by size exclusion chromatography on an AKTAPURE FPLC (GE Healthcare, Chicago IL), using an S200 column followed by a S75 column.
Individual DSF reactions were set up with 9 μg of MHC and 100×, 50×, or 10× peptide to MHC ratio by molarity (peptides from GenScript). The final reaction volume was 20 μL and reaction mixtures were incubated at room temperature for 20–30 min.
Prometheus excitation power was set such that raw fluorescence counts were between 8000–15000 for each sample. Samples were heated at 1 °C per minute, from 20–95 °C. DSF measurements were taken in duplicate with high-sensitivity and standard capillaries. Melting temperatures were similar for a given peptide across conditions, and representative data from 50x ratio in high sensitivity capillary are presented. A secondary inflection point around 60 °C in most melts is consistent with melting of β2M[76]. […]
Supplemental Figure 9. Differential scanning fluorimetry data generated via Prometheus NanoTemper for predicted peptides with HLA-E. a) Raw 350/330 nm ratios and first derivative for samples. The second inflection point is consistent with β2M unfolding. b) Summary of Tm values for the first inflection point called by Prometheus software for these samples. […]
On the technique in general: In DSF a fluorescence change marks the thermal transition of the protein.

The target in assay [6] is T1, CD94/NKG2A (Homo sapiens, UniProt P26715+Q13241).
T1 construct: The C-terminus of human NKG2A or NKG2C ectodomain was connected via a GGSGGS linker to human CD94 ectodomain; AviTag biotinylation tag (C); poly-histidine tag (C); made in house; host or cells: baculovirus, High Five (Hi5) insect cells
T1 sequence (Q13241 whole entry, looked up, the tested form may be a part): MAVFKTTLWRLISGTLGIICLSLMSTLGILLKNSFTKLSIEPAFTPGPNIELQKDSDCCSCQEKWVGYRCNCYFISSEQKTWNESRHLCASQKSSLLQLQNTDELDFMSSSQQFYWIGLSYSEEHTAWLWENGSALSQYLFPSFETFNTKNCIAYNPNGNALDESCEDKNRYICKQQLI
T1 sequence (P26715 whole entry, looked up, the tested form may be a part): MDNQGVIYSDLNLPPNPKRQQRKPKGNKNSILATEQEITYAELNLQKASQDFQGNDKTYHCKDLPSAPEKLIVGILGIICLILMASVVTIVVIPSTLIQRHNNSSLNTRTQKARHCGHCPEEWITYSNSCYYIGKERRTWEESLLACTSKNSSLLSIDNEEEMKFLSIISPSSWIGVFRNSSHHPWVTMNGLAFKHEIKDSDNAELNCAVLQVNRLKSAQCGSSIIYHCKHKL
The experiment in a line: Steady-state SPR of peptide-HLA-E single chain trimers with CD94/NKG2A. It is filed as binding. The following applies: SPR with CD94/NKG2A and CD94/NKG2C, Fig. 5B; taken as lower stability of the peptide-HLA-E complex. On the procedure:
Specifically, we measured CD94/NKG2A and CD94/NKG2C affinity for HLA-E complexed with three sets of peptides. […] Third, we included […] peptide as a positive control.
Steady-state surface plasmon resonance experiments were performed with a Biacore T200 instrument. CD94/NKG2x in HBS-EP+ buffer was injected as analyte in a concentration range of 0.1 μM to 102.4 μM and flow rate of 10 μL/min at 25 °C. Data was fit with Prism 9.4 (GraphPad Software Inc; San Diego CA) to a “one site, specific binding” model. Sensorgrams are included in Supplemental Fig. 13.
For investigating WN peptides, biotinylated pMHC was immobilized at approximately 400 Response Units (RU) on a Series S SA sensor chip (Cytiva). […] CD94/NKG2A was injected followed by CD94/NKG2C.
For investigating human-derived peptides, Series S CM5 chips (Cytiva) were coupled to neutravidin and utilized. Biotinylated pMHC was immobilized at approximately 400 RU. On one chip, […] CD94/NKG2A was injected followed by CD94/NKG2C. On a second chip, PISD55-63 HLA-E SCT, AKAP6_388-396 HLA-E SCT, GTF3C5_293-301 HLA-E SCT, and reference HLA-DR401 were immobilized. CD94/NKG2C was injected followed by CD94/NKG2A. Rmax, fit values were calculated by Biacore software. Rmax, theoretical values were calculated using the analyte/ligand mass ratio (0.66) multiplied by the amount of ligand coupled to the chip.

Take QMPSRSLLF [CREB3L1_419-427]: the “stabilization of HLA-E surface expression” value (from here on “stabilization”) in assay [1] is reported as “strong binding that is weaker than VMAPRTLFL; also recorded: strong stabilization”. For the same sequence, the “inhibitory effects on NKG2A+ cells” value in assay [2] is “more moderate inhibitory effects”. Further, the “activating effects on NKG2C+ cells” value in assay [3] was “strong activating effects”. Moreover, the “NKG2C-mediated NK cell activation” value in assay [4] was “activation similar to the weaker positive control ([…]) or between the two positive controls”. Besides, the Tm in assay [5] was 46.2 °C.

With “VLPHRTQFL [UL120_72-80, Merlin, CMV peptide from Membrane protein UL120, strain Merlin]”, in assay [1], the “stabilization” value was “strong binding that is weaker than VMAPRTLFL; also recorded: strong HLA-E binding”. Further, the “inhibitory effects on NKG2A+ cells” value in assay [2] is listed as “strong inhibitory effects”. Also, the “activating effects on NKG2C+ cells” value in assay [3] was “strong activating effects”. Moreover, in assay [4], the “NKG2C-mediated NK cell activation” value was “activation similar to the weaker positive control ([…]) or between the two positive controls”. Also, the Tm in assay [5] was found to be 45.7 °C.

As to “TGPWRSLWI [GTF3C5_293-301, human peptide from General transcription factor 3C polypeptide 5]”, in assay [1], the “stabilization” value was “weak but detectable stabilization”. Besides, the “inhibitory effects on NKG2A+ cells” value in assay [2] is “minimal inhibitory effects”. The “activating effects on NKG2C+ cells” value in assay [3] is reported as “clear activating effects”. Moreover, the “NKG2C-mediated NK cell activation” value in assay [4] is “detectable activation, though below both positive control examples”. Also, the “average percent CD107a+” value in assay [4] (NKG2C+ NK cells with RMA-S/HLA-E cells, Fig. 4B, stated in author rebuttal) is listed as 11.1%. For the same sequence, the “maximal response units (Rmax) compared to theoretical maximum” value in assay [6] was “lower maximal values compared to the theoretical maximum”.

“TLPKRGLFL [AKAP6_388-396, human peptide from A-kinase anchor protein 6]”: the “stabilization” value in assay [1] is listed as “strong binding that is weaker than VMAPRTLFL; also recorded: strong stabilization”. Further, in assay [2], the “inhibitory effects on NKG2A+ cells” value is “more moderate inhibitory effects”. Moreover, the “activating effects on NKG2C+ cells” value in assay [3] was “strong activating effects”. In addition, the “NKG2C-mediated NK cell activation” value in assay [4] (RMA-S/HLA-E target cells, 300 µM peptide ([…] µM BFAR263-271), E:T 2:1, 6 h, flow cytometry, n = 3 (n = 2 for some) donors) was “activation at the level of the strongest positive control binder (VMAPRTLFL)”.
